Results from the supplement of paper PMC10307832.

Assays:
Experiment in all cases: relative viability (nuclei count vs DMSO), 5 days (fraction); higher = more cells survive
[1] = test system: UMC-11
In short: (§1)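 For relative viability, nuclei counts in treated wells were divided by those in vehicle wells. Lung cancer cell lines had been pin-tool dosed in 1536-well plates the day after seeding and cultured for 5 days, then fixed and stained in one step (final 0.05% Triton X-100, 1% formaldehyde, 1 ug/ml Hoechst) and imaged at 4×. Doses were one drug alone or a fixed anchor-drug dose plus five library-drug doses (not always all listed) in √10 steps, and values are duplicate-plate medians.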

[2] = test system: NCI-H2023
In short: as §1

[3] = test system: NCI-H1915
In short: as §1

[4] = test system: HCC-44
In short: as §1

[5] = test system: LCLC-97TM1
In short: as §1

[6] = test system: SW 1573
In short: as §1

[7] = test system: NCI-H1734
In short: as §1

[8] = test system: NCI-H2347
In short: as §1

[9] = test system: EPLC-272H
In short: as §1

[10] = test system: NCI-H1975
In short: as §1

[11] = test system: NCI-H2342
In short: as §1

[12] = test system: NCI-H1395
In short: as §1

[13] = test system: NCI-H838
In short: as §1

[14] = test system: HCC-15
In short: as §1

[15] = test system: A-427
In short: as §1

[16] = test system: NCI-H520
In short: as §1

[17] = test system: NCI-H2405
In short: as §1

[18] = test system: COR-L 105
In short: as §1

[19] = test system: LC-2-ad
In short: as §1

[20] = test system: SW 900
In short: as §1

[21] = test system: CAL-12T
In short: as §1

[22] = test system: NCI-H1792
In short: as §1

Question: How did the relative viability ([1]; first compound 0.02 µM) turn out when `CN1CCN(CCOc2cc(OC3CCOCC3)c3c(Nc4c(Cl)ccc5c4OCO5)ncnc3c2)CC1` [Saracatinib] + CC(=O)Nc1cccc(-n2c(=O)n(C3CC3)c(=O)c3c(Nc4ccc(I)cc4F)n(C)c(=O)c(C)c32)c1 [Trametinib] (partner 0.02 µM) was run?
Answer: 0.763

Question: And the relative viability ([1]; first compound 0.2 µM)?
Answer: 0.586

Question: And the relative viability ([1]; first compound 0.6325 µM)?
Answer: 0.911

Question: And the relative viability ([1]; first compound 2 µM)?
Answer: 0.641

Question: What about the relative viability ([2]; first compound 0.02 µM) of the same compound?
Answer: 0.52

Question: What about the relative viability ([2]; first compound 0.2 µM) of the same compound?
Answer: 0.269

Question: What about the relative viability ([2]; first compound 0.6325 µM) of the same compound?
Answer: 0.487

Question: What about the relative viability ([2]; first compound 2 µM) of the same compound?
Answer: 0.348

Question: What about the relative viability ([3]; first compound 0.02 µM) of the same compound?
Answer: 0.305

Question: What about the relative viability ([3]; first compound 0.2 µM) of the same compound?
Answer: 0.292

Question: And the relative viability ([3]; first compound 0.6325 µM)?
Answer: 0.251

Question: And the relative viability ([3]; first compound 2 µM)?
Answer: 0.265

Question: And the relative viability ([4]; first compound 0.02 µM)?
Answer: 1.05

Question: What about the relative viability ([4]; first compound 0.2 µM) of the same compound?
Answer: 1.02

Question: And the relative viability ([4]; first compound 0.6325 µM)?
Answer: 1.18

Question: And the relative viability ([4]; first compound 2 µM)?
Answer: 1.21

Question: What about the relative viability ([5]; first compound 0.02 µM) of the same compound?
Answer: 0.222

Question: What about the relative viability ([5]; first compound 0.2 µM) of the same compound?
Answer: 0.21

Question: What about the relative viability ([5]; first compound 0.6325 µM) of the same compound?
Answer: 0.223

Question: What about the relative viability ([5]; first compound 2 µM) of the same compound?
Answer: 0.275

Question: What about the relative viability ([6]; first compound 0.02 µM) of the same compound?
Answer: 0.507

Question: What about the relative viability ([6]; first compound 0.2 µM) of the same compound?
Answer: 0.598

Question: And the relative viability ([6]; first compound 0.6325 µM)?
Answer: 0.457

Question: What about the relative viability ([6]; first compound 2 µM) of the same compound?
Answer: 0.364

Question: And the relative viability ([7]; first compound 0.02 µM)?
Answer: 0.7

Question: And the relative viability ([7]; first compound 0.6325 µM)?
Answer: 0.645

Question: What about the relative viability ([7]; first compound 2 µM) of the same compound?
Answer: 0.611

Question: What about the relative viability ([8]; first compound 0.02 µM) of the same compound?
Answer: 0.265

Question: And the relative viability ([8]; first compound 0.2 µM)?
Answer: 0.265

Question: And the relative viability ([8]; first compound 0.6325 µM)?
Answer: 0.379

Question: And the relative viability ([8]; first compound 2 µM)?
Answer: 0.277

Question: What about the relative viability ([9]; first compound 0.02 µM) of the same compound?
Answer: 0.289

Question: And the relative viability ([9]; first compound 0.2 µM)?
Answer: 0.368

Question: And the relative viability ([9]; first compound 0.6325 µM)?
Answer: 0.283

Question: What about the relative viability ([9]; first compound 2 µM) of the same compound?
Answer: 0.287

Question: What about the relative viability ([10]; first compound 0.02 µM) of the same compound?
Answer: 0.37

Question: And the relative viability ([10]; first compound 0.2 µM)?
Answer: 0.412

Question: What about the relative viability ([10]; first compound 0.6325 µM) of the same compound?
Answer: 0.391

Question: And the relative viability ([10]; first compound 2 µM)?
Answer: 0.267

Question: What about the relative viability ([11]; first compound 0.02 µM) of the same compound?
Answer: 0.763

Question: And the relative viability ([11]; first compound 0.2 µM)?
Answer: 0.789

Question: And the relative viability ([11]; first compound 0.6325 µM)?
Answer: 0.944

Question: And the relative viability ([11]; first compound 2 µM)?
Answer: 0.817

Question: What about the relative viability ([12]; first compound 0.02 µM) of the same compound?
Answer: 1.07

Question: And the relative viability ([12]; first compound 0.2 µM)?
Answer: 0.995

Question: What about the relative viability ([12]; first compound 0.6325 µM) of the same compound?
Answer: 0.953

Question: What about the relative viability ([12]; first compound 2 µM) of the same compound?
Answer: 0.905

Question: And the relative viability ([13]; first compound 0.02 µM)?
Answer: 0.54

Question: And the relative viability ([13]; first compound 0.2 µM)?
Answer: 0.497

Question: And the relative viability ([13]; first compound 0.6325 µM)?
Answer: 0.47

Question: What about the relative viability ([13]; first compound 2 µM) of the same compound?
Answer: 0.425

Question: And the relative viability ([14]; first compound 0.02 µM)?
Answer: 0.44

Question: What about the relative viability ([14]; first compound 0.2 µM) of the same compound?
Answer: 0.371

Question: And the relative viability ([14]; first compound 0.6325 µM)?
Answer: 0.455

Question: And the relative viability ([14]; first compound 2 µM)?
Answer: 0.388

Question: And the relative viability ([15]; first compound 0.02 µM)?
Answer: 0.764

Question: What about the relative viability ([15]; first compound 0.2 µM) of the same compound?
Answer: 0.738

Question: And the relative viability ([15]; first compound 0.6325 µM)?
Answer: 0.911

Question: And the relative viability ([15]; first compound 2 µM)?
Answer: 0.672

Question: What about the relative viability ([16]; first compound 0.02 µM) of the same compound?
Answer: 0.703

Question: And the relative viability ([16]; first compound 0.2 µM)?
Answer: 0.53

Question: What about the relative viability ([16]; first compound 0.6325 µM) of the same compound?
Answer: 0.586

Question: And the relative viability ([16]; first compound 2 µM)?
Answer: 0.273

Question: And the relative viability ([17]; first compound 0.02 µM)?
Answer: 0.646

Question: And the relative viability ([17]; first compound 0.2 µM)?
Answer: 0.616

Question: And the relative viability ([17]; first compound 0.6325 µM)?
Answer: 0.444

Question: What about the relative viability ([17]; first compound 2 µM) of the same compound?
Answer: 0.406

Question: What about the relative viability ([18]; first compound 0.02 µM) of the same compound?
Answer: 0.486

Question: What about the relative viability ([18]; first compound 0.2 µM) of the same compound?
Answer: 0.437

Question: What about the relative viability ([18]; first compound 0.6325 µM) of the same compound?
Answer: 0.37

Question: What about the relative viability ([18]; first compound 2 µM) of the same compound?
Answer: 0.317

Question: What about the relative viability ([19]; first compound 0.02 µM) of the same compound?
Answer: 0.9

Question: What about the relative viability ([19]; first compound 0.2 µM) of the same compound?
Answer: 0.858

Question: And the relative viability ([19]; first compound 0.6325 µM)?
Answer: 0.993

Question: And the relative viability ([19]; first compound 2 µM)?
Answer: 0.866

Question: And the relative viability ([20]; first compound 0.02 µM)?
Answer: 0.624

Question: And the relative viability ([20]; first compound 0.2 µM)?
Answer: 0.443

Question: And the relative viability ([20]; first compound 0.6325 µM)?
Answer: 0.647

Question: And the relative viability ([20]; first compound 2 µM)?
Answer: 0.529

Question: And the relative viability ([21]; first compound 0.02 µM)?
Answer: 0.394

Question: What about the relative viability ([21]; first compound 0.2 µM) of the same compound?
Answer: 0.373

Question: And the relative viability ([21]; first compound 0.6325 µM)?
Answer: 0.475

Question: And the relative viability ([21]; first compound 2 µM)?
Answer: 0.323

Question: And the relative viability ([22]; first compound 0.02 µM)?
Answer: 0.492

Question: What about the relative viability ([22]; first compound 0.2 µM) of the same compound?
Answer: 0.355

Question: What about the relative viability ([22]; first compound 0.6325 µM) of the same compound?
Answer: 0.382

Question: And the relative viability ([22]; first compound 2 µM)?
Answer: 0.3
